The nature of data set [1]: Relaxivity of contrast agent at 7 T. It is filed as physicochemical. An excerpt: The use of a paramagnetic gadolinium chelate-loaded SapC-DOPS (Gd-DTPA-BSA/SapC-DOPS) vesicles as a targeted contrast agent for imaging glioblastoma multiforme tumors are also useful in the present invention. Gd-DTPA-BSA/SapC-DOPS vesicles and Gd-DTPA display a similar relaxivity of 3.32 and 2.80 (s·mM)−1, respectively, at 7 T. According to the in vivo experiments, the R1 values of the tumor before injection of Gd-DTPA-BSA/SapC-DOPS vesicles, sham injected brain, and contralateral normal brain were 0.4676±0.010 s−1, 0.5216±0.034 s−1, and 0.5596±0.003 s−1, respectively. […] At 24 h postinjection, the tumor R1 remained elevated (7.9±1.5%, P<0.05) compared with the normal and sham brains, but it was statistically similar to the controls (4.7±2.0%, p>0.05). […] At 4 h, 10 h, and 20 h, the increase in T1 relaxation time is higher in the sham normal brain compared with sham tumor. By 24 h postinjection, the T1-weighted signal is similar in both tissues.

Data set [2] relates to non-small cell lung cancer (NSCLC). Conditions: cited from earlier work.
The test system of data set [3] is HER2-negative breast cancer. Conditions: phase I, cited from earlier work.

`O=C([O-])CN(CCN(CC(=O)[O-])CC(=O)O)CCN(CC(=O)[O-])CC(=O)O.[Gd+3]` [Gd-DTPA] had a relaxivity in data set [1] of 2.80 s/mM.
For “Bavituximab: chimeric monoclonal antibody that binds to PS”, in data set [2] (advanced, previously treated NSCLC, phase III), the “overall survival, Bavituximab + docetaxel versus docetaxel alone” value was “no significant difference”. In data set [2] (patients pre-treated with immune checkpoint inhibitors), the “overall survival versus placebo-treated patients” value is listed as “increased overall survival”. Moreover, in data set [3] (with paclitaxel as adjuvant therapy), the overall response rate was 85%. Further, in data set [3] (with paclitaxel), the tolerability entry is “well tolerated”.

Values taken from US12172007B2, “Combination therapy of electric fields and an additional treatment for cancer and imaging” (University of Cincinnati, priority 2019, dated 2024).
